Legend:
ERα-target genes = assay: real-time PCR analysis of ERα target genes in MCF-7 cells; type: cell-based, human; details: 1 μM compound, 1 nM E2, RNA level
[1] = tested on: tamoxifen-resistant breast cancer cells; details: cited from earlier work
[2] = cited from earlier work
[3] = tested on: tamoxifen-resistant breast tumors; details: cited from earlier work
human ERβ = human ERβ (Homo sapiens, UniProt Q92731); assay: competitive radiometric binding assay with [3H]estradiol, ERβ
human ERα = biological target: T1, human ERα (Homo sapiens, UniProt P03372); assay: competitive radiometric binding assay with [3H]estradiol, ERα; details: relative binding affinity, IC50[estradiol]/IC50[compound] × 100, estradiol = 100; 10 nM [3H]estradiol, 18-24 h at 0 °C; average ± range or SD
T1 sequence (P03372 1-595): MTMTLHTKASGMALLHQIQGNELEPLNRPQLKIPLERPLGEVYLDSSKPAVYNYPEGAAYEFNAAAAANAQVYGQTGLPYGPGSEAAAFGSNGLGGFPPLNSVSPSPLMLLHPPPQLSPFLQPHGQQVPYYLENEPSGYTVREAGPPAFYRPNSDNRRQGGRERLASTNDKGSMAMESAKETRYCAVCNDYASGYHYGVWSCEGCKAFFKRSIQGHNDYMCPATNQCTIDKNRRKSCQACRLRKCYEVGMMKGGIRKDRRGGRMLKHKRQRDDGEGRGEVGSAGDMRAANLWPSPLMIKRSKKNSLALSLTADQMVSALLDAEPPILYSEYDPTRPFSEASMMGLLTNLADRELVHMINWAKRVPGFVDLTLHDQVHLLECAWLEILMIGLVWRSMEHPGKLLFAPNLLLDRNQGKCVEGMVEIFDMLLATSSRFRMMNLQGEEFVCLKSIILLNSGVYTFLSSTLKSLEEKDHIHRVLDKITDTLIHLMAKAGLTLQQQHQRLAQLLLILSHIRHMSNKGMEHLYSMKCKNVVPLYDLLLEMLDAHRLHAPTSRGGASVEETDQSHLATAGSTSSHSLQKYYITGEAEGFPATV

[4] = Figure 6B, not fully reversed to control

Sequence of human ERβ (Q92731 whole entry): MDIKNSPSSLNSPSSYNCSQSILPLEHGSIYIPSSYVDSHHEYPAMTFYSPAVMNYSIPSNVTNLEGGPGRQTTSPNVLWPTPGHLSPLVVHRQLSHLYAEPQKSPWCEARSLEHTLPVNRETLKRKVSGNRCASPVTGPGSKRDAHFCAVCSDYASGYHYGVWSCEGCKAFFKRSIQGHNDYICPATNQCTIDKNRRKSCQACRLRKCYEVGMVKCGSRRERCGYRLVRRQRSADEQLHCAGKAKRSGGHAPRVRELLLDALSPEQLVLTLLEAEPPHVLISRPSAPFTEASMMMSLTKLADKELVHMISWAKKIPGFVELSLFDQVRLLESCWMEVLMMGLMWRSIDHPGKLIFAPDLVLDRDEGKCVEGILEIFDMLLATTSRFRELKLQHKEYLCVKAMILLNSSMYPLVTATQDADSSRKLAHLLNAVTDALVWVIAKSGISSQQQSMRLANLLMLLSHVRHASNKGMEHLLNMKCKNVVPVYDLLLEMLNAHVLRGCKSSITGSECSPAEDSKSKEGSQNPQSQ

With `CC/C(=C(\c1ccc(O)cc1)c1ccc(/C=C/C(=O)O)cc1)c1ccccc1` [Compound 4] the “E2-mediated activation of the CA12 gene” value (ERα-target genes; Figure 6A) was “most effective”, the “E2-mediated stimulation of the PR gene” value (ERα-target genes; Figure 6A) was “significantly blocked” and the “E2-mediated stimulation of the pS2 gene” value (ERα-target genes; Figure 6A) was “significantly blocked”. For the same compound, the “E2-mediated repression of BLNK gene expression” value (ERα-target genes; [4]) was “reduce” and the “E2-mediated repression of ENC1 gene expression” value (ERα-target genes; [4]) was “reduce”.

In the case of `C[C@]12CC[C@@H]3c4ccc(O)cc4C[C@@H](CCCCCCCCC[S+]([O-])CCCC(F)(F)C(F)(F)F)[C@H]3[C@@H]1CC[C@@H]2O` (some centres unmarked) [ICI 182,780], the “growth of tamoxifen-resistant breast cancer cells” value [1] is listed as “capable of inhibiting” and the oral bioavailability [2] is listed as “poor”.

For `CC/C(=C(\c1ccccc1)c1ccc(/C=C/C(=O)O)cc1)c1ccccc1` [Compound 1], the “growth of tamoxifen-resistant breast tumors” value [3] is listed as “can inhibit”.

With `CC(=O)Oc1ccc(C(=C2CCCCC2)c2ccc(OC(C)=O)cc2)cc1` [Compound 2, cyclofenil] the β/α (human ERβ; ratio of RBA values, >1 for higher affinity on ERβ than on ERα) was 4.9, the “RBA ERβ” value (human ERβ; relative binding affinity, IC50[estradiol]/IC50[compound] × 100, estradiol = 100, 10 nM [3H]estradiol, 18-24 h at 0 °C, average ± range or SD) was 334 ± 54 and the “RBA ERα” value (human ERα) was 68 ± 18.
